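Grown in 96-well plates, cells were treated for 48 hours with each compound at five concentrations. Insufficient inhibition: endpoint recorded as highest concentration tested. Here, GI50 denotes the concentration required for 50% inhibition of growth.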 Active and inactive are the calls of the source. Cut-off read from the data, not from the text of the source: active = GI50 up to about 1.1 µM and inactive = higher.
What was measured:
Assay in all cases: inhibition of tumour cell growth, NCI panel, 48 h
[1] = test system: SF-295
[2] = test system: DMS-273
[3] = test system: RPMI-8226
[4] = test system: NCI-H226
[5] = test system: HCT-15
[6] = test system: DMS-114
[7] = test system: HCC 2998
[8] = test system: A498
[9] = test system: OVCAR-3
[10] = test system: COLO 205
[11] = test system: OVCAR-5
[12] = test system: U-251
[13] = test system: RXF 393
[14] = test system: KM12
[15] = test system: NCI-H23
[16] = test system: CCRF-CEM
[17] = test system: DLD-1
[18] = test system: SW-620
[19] = test system: XF498
[20] = test system: EKVX
[21] = test system: SK-MEL-2
[22] = test system: HOP-92
[23] = test system: MCF7
[24] = test system: HOP-62
[25] = test system: HL-60
[26] = test system: SF-539
[27] = test system: SNB-78
[28] = test system: OVCAR-4
[29] = test system: SN12C
[30] = test system: SF-268
[31] = test system: MOLT-4
[32] = test system: LOX IMVI
[33] = test system: SK-OV-3
[34] = test system: SNB-19
[35] = test system: UACC-62
[36] = test system: Malme-3M
[37] = test system: OVCAR-8
[38] = test system: NCI/ADR-RES
[39] = test system: CAKI-1
[40] = test system: K562
[41] = test system: NCI-H460
[42] = test system: HCT-116
[43] = test system: IGROV-1
[44] = test system: HT-29
[45] = test system: SK-MEL-28
[46] = test system: A549
[47] = test system: SK-MEL-5
[48] = test system: HOP-18
[49] = test system: SNB-75
[50] = test system: KM-20L2
[51] = test system: UACC-257
[52] = test system: UO-31
[53] = test system: TK-10
[54] = test system: M14
[55] = test system: M19-MEL
[56] = test system: ACHN

In the case of `C=CCC(O[Si](C)(C)C(C)(C)C)c1cc(O[Si](C)(C)C(C)(C)C)ccc1OC` (stereo not given), the GI50 [1] was > 71.8 µM (inactive), the GI50 [2] was > 95.1 µM (inactive) and the GI50 [3] was > 100 µM (inactive). For the same molecule, the GI50 [4] was > 53.6 µM (inactive), the GI50 [5] was > 74.5 µM and the GI50 [6] was > 59.7 µM (inactive). For the same molecule, the GI50 [7] was > 100 µM (inactive), the GI50 [8] was 46.9 µM (inactive) and the GI50 [9] was > 54.6 µM (inactive). The GI50 [10] was > 83 µM (inactive), the GI50 [11] was > 100 µM (inactive) and the GI50 [12] was > 71.6 µM (inactive). For the same molecule, the GI50 [13] was 58.9 µM (inactive), the GI50 [14] was > 100 µM (inactive) and the GI50 [15] was > 100 µM (inactive). For the same molecule, the GI50 [16] was > 100 µM (inactive), the GI50 [17] was > 70.3 µM (inactive) and the GI50 [18] was > 100 µM (inactive). For the same molecule, the GI50 [19] was > 58.5 µM (inactive), the GI50 [20] was > 100 µM (inactive) and the GI50 [21] was > 75.5 µM (inactive). The GI50 [22] was 35.4 µM (inactive), the GI50 [23] was 51.1 µM (inactive) and the GI50 [24] was > 100 µM (inactive). The GI50 [25] was > 100 µM (inactive), the GI50 [26] was 99.3 µM (inactive) and the GI50 [27] was > 49.2 µM (inactive). For the same molecule, the GI50 [28] was > 67.3 µM (inactive), the GI50 [29] was > 87.3 µM (inactive) and the GI50 [30] was > 85.9 µM (inactive). For the same molecule, the GI50 [31] was > 70.8 µM (inactive), the GI50 [32] was > 94.2 µM (inactive) and the GI50 [33] was > 62.4 µM (inactive). For the same molecule, the GI50 [34] was > 62.2 µM (inactive), the GI50 [35] was > 81.3 µM (inactive) and the GI50 [36] was > 100 µM (inactive). For the same molecule, the GI50 [37] was > 81.3 µM (inactive), the GI50 [38] was > 64.7 µM (inactive) and the GI50 [39] was 40.7 µM (inactive). For the same molecule, the GI50 [40] was > 100 µM (inactive), the GI50 [41] was > 70 µM (inactive) and the GI50 [42] was > 80.7 µM (inactive). For the same molecule, the GI50 [43] was > 100 µM (inactive), the GI50 [44] was > 100 µM (inactive) and the GI50 [45] was > 81.8 µM (inactive). For the same molecule, the GI50 [46] was > 64.1 µM (inactive), the GI50 [47] was > 61.1 µM (inactive) and the GI50 [48] was > 100 µM (inactive). For the same molecule, the GI50 [49] was > 55.6 µM (inactive), the GI50 [50] was > 100 µM (inactive) and the GI50 [51] was > 79.4 µM (inactive). For the same molecule, the GI50 [52] was > 82 µM (inactive).
For `Cc1cc2c(cc1O)[nH]c1cc3c(cc12)C=CC(C)(C)O3`, the GI50 [3] was 9.1 µM (inactive), the GI50 [6] was 10.6 µM (inactive) and the GI50 [9] was 7.28 µM (inactive). For the same molecule, the GI50 [10] was > 25 µM (inactive), the GI50 [11] was 17.7 µM (inactive) and the GI50 [19] was > 25 µM (inactive). For the same molecule, the GI50 [21] was > 25 µM (inactive), the GI50 [27] was 11.3 µM (inactive) and the GI50 [28] was 10.5 µM (inactive). For the same molecule, the GI50 [33] was > 25 µM (inactive), the GI50 [34] was > 25 µM (inactive) and the GI50 [37] was 4.55 µM (inactive). For the same molecule, the GI50 [40] was > 25 µM (inactive) and the GI50 [53] was > 25 µM (inactive).
For `Cc1cc(C)nc(NS(=O)(=O)c2ccc(Nc3c4ccccc4nc4c(C(=O)N5CCN(CCOS(C)(=O)=O)CC5)cccc34)cc2)n1`, the GI50 [1] was > 100 µM (inactive), the GI50 [3] was > 100 µM (inactive) and the GI50 [4] was > 100 µM (inactive). For the same molecule, the GI50 [5] was > 100 µM, the GI50 [6] was 99.1 µM (inactive) and the GI50 [7] was > 100 µM (inactive). The GI50 [8] was > 100 µM (inactive), the GI50 [9] was 96.4 µM (inactive) and the GI50 [10] was > 100 µM (inactive). For the same molecule, the GI50 [11] was > 100 µM (inactive), the GI50 [12] was 67 µM (inactive) and the GI50 [13] was > 100 µM (inactive). For the same molecule, the GI50 [14] was > 100 µM (inactive), the GI50 [15] was > 100 µM (inactive) and the GI50 [16] was 72.9 µM (inactive). For the same molecule, the GI50 [17] was > 100 µM (inactive), the GI50 [54] was > 100 µM (inactive) and the GI50 [19] was > 100 µM (inactive). For the same molecule, the GI50 [21] was > 100 µM (inactive), the GI50 [22] was > 100 µM (inactive) and the GI50 [24] was > 100 µM (inactive). The GI50 [25] was > 100 µM (inactive), the GI50 [26] was > 100 µM (inactive) and the GI50 [27] was > 100 µM (inactive). The GI50 [28] was > 100 µM (inactive), the GI50 [29] was > 100 µM (inactive) and the GI50 [30] was > 100 µM (inactive). For the same molecule, the GI50 [31] was 60.3 µM (inactive), the GI50 [55] was > 100 µM (inactive) and the GI50 [33] was > 100 µM (inactive). For the same molecule, the GI50 [34] was > 100 µM (inactive), the GI50 [35] was > 100 µM (inactive) and the GI50 [36] was > 100 µM (inactive). The GI50 [37] was > 100 µM (inactive), the GI50 [39] was > 100 µM (inactive) and the GI50 [40] was 53.2 µM (inactive). The GI50 [41] was 84.9 µM (inactive), the GI50 [42] was > 100 µM (inactive) and the GI50 [53] was > 100 µM (inactive). For the same molecule, the GI50 [43] was > 100 µM (inactive), the GI50 [44] was > 100 µM (inactive) and the GI50 [45] was > 100 µM (inactive). The GI50 [46] was > 100 µM (inactive), the GI50 [47] was > 100 µM (inactive) and the GI50 [49] was 49.9 µM (inactive). The GI50 [50] was > 100 µM (inactive), the GI50 [51] was > 100 µM (inactive) and the GI50 [56] was > 100 µM (inactive). The GI50 [52] was > 100 µM (inactive).
